Tests used:
[1] = tested on: ABUTH (Abutilon theophrasti); experiment: Postemergence herbicidal evaluation; format: in vivo, Medic.; conditions: postemergence
Procedure, shortened: (§1)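 Seedlings grown about two weeks in flats, sprayed, then kept under standard greenhouse care. Rated visually 4–5 weeks after treatment on a 0–9 scale (stand, vigour, malformation, size, chlorosis, overall appearance) relative to untreated control; repeat tests averaged.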

[2] = tested on: AMBEL (Ambrosia artemisifolia); experiment: Postemergence herbicidal evaluation; format: in vivo, L.; conditions: postemergence
Procedure, shortened: as §1

[3] = tested on: CASOB (Cassia obtusifolia); experiment: Postemergence herbicidal evaluation; format: in vivo, L.; conditions: postemergence
Procedure, shortened: as §1

[4] = tested on: CHEAL (Chenopodium album); experiment: Postemergence herbicidal evaluation; format: in vivo, L.; conditions: postemergence
Procedure, shortened: as §1

GALAP (Galium aparine) = experiment: Postemergence herbicidal evaluation; format: in vivo; conditions: postemergence
Procedure, shortened: as §1

[5] = tested on: IPOHE (Ipomoea hederacea); experiment: Postemergence herbicidal evaluation; format: in vivo, (L.) Jacq.; conditions: postemergence
Procedure, shortened: as §1

[6] = tested on: ECHCG (Echinochloa crus-galli); experiment: Postemergence herbicidal evaluation; format: in vivo, (L.) Beau; conditions: postemergence
Procedure, shortened: as §1

[7] = tested on: GLXMAW (Soybean, Williams); experiment: Postemergence herbicidal evaluation; format: in vivo, Glycine max, (L.) Merr. cv Williams; conditions: postemergence
Procedure, shortened: as §1

ZEAMX (Corn, Field) [8] = experiment: Postemergence herbicidal evaluation; format: in vivo, Zea mays, L.; conditions: postemergence
Procedure, shortened: as §1

[9] = tested on: AMBEL (Ambrosia artemisifolia); experiment: Preemergence herbicidal evaluation; format: in vivo, L.; conditions: rated 4-5 weeks after treatment
Procedure, shortened: (§2)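 Visual 0–9 rating versus control (stand, vigor, malformation, size, chlorosis, overall appearance), scored four to five weeks post-treatment. Preemergence spray of aqueous acetone solution onto freshly seeded soil cups; plants grown under conventional greenhouse care.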

[10] = tested on: CASOB (Cassia obtusifolia); experiment: Preemergence herbicidal evaluation; format: in vivo, L.; conditions: rated 4-5 weeks after treatment
Procedure, shortened: as §2

[11] = tested on: CHEAL (Chenopodium album); experiment: Preemergence herbicidal evaluation; format: in vivo, L.; conditions: rated 4-5 weeks after treatment
Procedure, shortened: as §2

[12] = tested on: IPOHE (Ipomoea hederacea); experiment: Preemergence herbicidal evaluation; format: in vivo, (L.) Jacq.; conditions: rated 4-5 weeks after treatment
[13] = tested on: GLXMAW (Soybean, Williams); experiment: Preemergence herbicidal evaluation; format: in vivo, Glycine max, (L.) Merr. cv Williams; conditions: rated 4-5 weeks after treatment
ORYSAT (Rice, Tebonnet) = experiment: Preemergence herbicidal evaluation; format: in vivo, Oryza sativa, (L.) Tebonnet; conditions: rated 4-5 weeks after treatment
[14] = tested on: TRZAWR (Wheat, Winter, cv Riband); experiment: Preemergence herbicidal evaluation; format: in vivo, Triticum aestivum; conditions: rated 4-5 weeks after treatment
Procedure, shortened: as §2

ZEAMX (Corn, Field) [15] = experiment: Preemergence herbicidal evaluation; format: in vivo, Zea mays, L.; conditions: rated 4-5 weeks after treatment
[16] = tested on: ECHORC (Echinochloa oryzoides); experiment: Flooded paddy, preemergence weed control; format: in vivo, Echinochloa oryzoides (Ard.) Fritsch.; conditions: rated 3-4 weeks after treatment, 0-9 rating scale
Procedure, shortened: (§3)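 Ratings of 0-9 reflect visual comparison with a control for stand, vigor, deformity, size, chlorosis and overall look. Propagules were placed in shallow silt loam (top 0.5 cm) under a continuous 1.5–3 cm flood and grown in the greenhouse.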

CYPIR (Cyperus iria) = experiment: Flooded paddy, preemergence weed control; format: in vivo; conditions: rated 3-4 weeks after treatment, 0-9 rating scale
Procedure, shortened: as §3

[17] = tested on: CYPSE (Cyperus serotinus); experiment: Flooded paddy, preemergence weed control; format: in vivo, Rottb.; conditions: rated 3-4 weeks after treatment, 0-9 rating scale
Procedure, shortened: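 Herbicidal effect was scored visually on a 0–9 scale against an untreated control 3–4 weeks after treatment. Compounds were applied preemergence as 50/50 v/v aqueous/acetone mixtures into flood water (1.5–3 cm deep over silt loam), at roughly 0.0080 to 0.1250 kg/ha active ingredient.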

[18] = tested on: SAGPY (Sagittaria pygmaea); experiment: Flooded paddy, preemergence weed control; format: in vivo, L.; conditions: rated 3-4 weeks after treatment, 0-9 rating scale
Procedure, shortened: as §3

SMILES: Cc1nn(-c2nsc3ccc(-n4c(=O)cc(C(F)(F)F)n(C)c4=O)cc23)c(C)c1C [Compound 49, 1-methyl-6-(trifluoromethyl)-3-[3-(3,4,5-trimethylpyrazol-1-yl)-1,2-benzisothiazol-5-yl]uracil]
- ABUTH herbicidal rating ([1]; rate 0.0320 kg/ha): 0.0
- ABUTH herbicidal rating ([1]; rate 0.0620 kg/ha): 0.0
- AMBEL herbicidal rating ([2]; rate 0.0320 kg/ha): 0.0
- AMBEL herbicidal rating ([2]; rate 0.0620 kg/ha): 0.0
- CASOB herbicidal rating ([3]; rate 0.0320 kg/ha): 0.0
- CASOB herbicidal rating ([3]; rate 0.0620 kg/ha): 0.0
- CHEAL herbicidal rating ([4]; rate 0.0320 kg/ha): 0.0
- CHEAL herbicidal rating ([4]; rate 0.0620 kg/ha): 0.0
- GALAP herbicidal rating (GALAP (Galium aparine); rate 0.0320 kg/ha): 0.0
- GALAP herbicidal rating (GALAP (Galium aparine); rate 0.0620 kg/ha): 0.0
- IPOHE herbicidal rating ([5]; rate 0.0320 kg/ha): 5.0
- IPOHE herbicidal rating ([5]; rate 0.0620 kg/ha): 8.0
- ECHCG herbicidal rating ([6]; rate 0.0320 kg/ha): 0.0
- ECHCG herbicidal rating ([6]; rate 0.0620 kg/ha): 0.0
- GLXMAW herbicidal rating ([7]; rate 0.0320 kg/ha): 1.5
- GLXMAW herbicidal rating ([7]; rate 0.0620 kg/ha): 2.5
- ZEAMX herbicidal rating (ZEAMX (Corn, Field) [8]; rate 0.0320 kg/ha): 0.5
- ZEAMX herbicidal rating (ZEAMX (Corn, Field) [8]; rate 0.0620 kg/ha): 2.5
- Preemergence herbicidal rating AMBEL ([9]; Rate 0.0620 kg/ha): 0.0
- Preemergence herbicidal rating AMBEL ([9]; Rate 0.1250 kg/ha): 0.0
- Preemergence herbicidal rating AMBEL ([9]; Rate 0.2500 kg/ha): 0.0
- Preemergence herbicidal rating CASOB ([10]; Rate 0.0620 kg/ha): 0.0
- Preemergence herbicidal rating CASOB ([10]; Rate 0.1250 kg/ha): 0.0
- Preemergence herbicidal rating CASOB ([10]; Rate 0.2500 kg/ha): 0.0
- Preemergence herbicidal rating CHEAL ([11]; Rate 0.0620 kg/ha): 0.0
- Preemergence herbicidal rating CHEAL ([11]; Rate 0.1250 kg/ha): 0.0
- Preemergence herbicidal rating CHEAL ([11]; Rate 0.2500 kg/ha): 0.0
- Preemergence herbicidal rating IPOHE ([12]; Rate 0.0620 kg/ha): 0.0
- Preemergence herbicidal rating IPOHE ([12]; Rate 0.1250 kg/ha): 0.0
- Preemergence herbicidal rating IPOHE ([12]; Rate 0.2500 kg/ha): 0.0
- Preemergence herbicidal rating GLXMAW ([13]; Rate 0.0620 kg/ha): 0.0
- Preemergence herbicidal rating GLXMAW ([13]; Rate 0.1250 kg/ha): 0.0
- Preemergence herbicidal rating GLXMAW ([13]; Rate 0.2500 kg/ha): 0.0
- Preemergence herbicidal rating ORYSAT (ORYSAT (Rice, Tebonnet); Rate 0.0620 kg/ha): 0.0
- Preemergence herbicidal rating ORYSAT (ORYSAT (Rice, Tebonnet); Rate 0.1250 kg/ha): 0.0
- Preemergence herbicidal rating ORYSAT (ORYSAT (Rice, Tebonnet); Rate 0.2500 kg/ha): 0.0
- Preemergence herbicidal rating TRZAWR ([14]; Rate 0.0620 kg/ha): 0.0
- Preemergence herbicidal rating TRZAWR ([14]; Rate 0.1250 kg/ha): 0.0
- Preemergence herbicidal rating TRZAWR ([14]; Rate 0.2500 kg/ha): 0.0
- Preemergence herbicidal rating ZEAMX (ZEAMX (Corn, Field) [15]; Rate 0.0620 kg/ha): 0.0
- Preemergence herbicidal rating ZEAMX (ZEAMX (Corn, Field) [15]; Rate 0.1250 kg/ha): 0.0
- Preemergence herbicidal rating ZEAMX (ZEAMX (Corn, Field) [15]; Rate 0.2500 kg/ha): 0.0
- herbicidal rating, ECHORC ([16]; rate 0.0320 kg/ha): 0.0
- herbicidal rating, ECHORC ([16]; rate 0.1250 kg/ha): 0.0
- herbicidal rating, CYPIR (CYPIR (Cyperus iria); rate 0.0320 kg/ha): 0.0
- herbicidal rating, CYPIR (CYPIR (Cyperus iria); rate 0.1250 kg/ha): 0.0
- herbicidal rating, CYPSE ([17]; rate 0.0320 kg/ha): 0.0
- herbicidal rating, CYPSE ([17]; rate 0.1250 kg/ha): 0.0
- herbicidal rating, SAGPY ([18]; rate 0.0320 kg/ha): 0.0
- herbicidal rating, SAGPY ([18]; rate 0.1250 kg/ha): 0.0

SMILES: CC1COC(c2nsc3ccc(-n4c(=O)cc(C(F)(F)F)n(C)c4=O)cc23)O1 (stereo not shown) [Compound 57, 1-methyl-3-[3-(4-methyl-1,3-dioxolan-2-yl)-1,2-benzisothiazol-5-yl]-6-(trifluoromethyl)uracil]
- ABUTH herbicidal rating ([1]; rate 0.0320 kg/ha): 9.0
- ABUTH herbicidal rating ([1]; rate 0.0620 kg/ha): 9.0
- AMBEL herbicidal rating ([2]; rate 0.0320 kg/ha): 9.0
- AMBEL herbicidal rating ([2]; rate 0.0620 kg/ha): 9.0
- CASOB herbicidal rating ([3]; rate 0.0320 kg/ha): 7.0
- CASOB herbicidal rating ([3]; rate 0.0620 kg/ha): 9.0
- CHEAL herbicidal rating ([4]; rate 0.0320 kg/ha): 9.0
- CHEAL herbicidal rating ([4]; rate 0.0620 kg/ha): 7.0
- GALAP herbicidal rating (GALAP (Galium aparine); rate 0.0320 kg/ha): 6.0
- GALAP herbicidal rating (GALAP (Galium aparine); rate 0.0620 kg/ha): 9.0
- IPOHE herbicidal rating ([5]; rate 0.0320 kg/ha): 9.0
- IPOHE herbicidal rating ([5]; rate 0.0620 kg/ha): 9.0
- ECHCG herbicidal rating ([6]; rate 0.0320 kg/ha): 3.0
- ECHCG herbicidal rating ([6]; rate 0.0620 kg/ha): 3.0
- GLXMAW herbicidal rating ([7]; rate 0.0320 kg/ha): 7.0
- GLXMAW herbicidal rating ([7]; rate 0.0620 kg/ha): 8.5
- ZEAMX herbicidal rating (ZEAMX (Corn, Field) [8]; rate 0.0320 kg/ha): 5.0
- ZEAMX herbicidal rating (ZEAMX (Corn, Field) [8]; rate 0.0620 kg/ha): 5.5
- Preemergence herbicidal rating AMBEL ([9]; Rate 0.0620 kg/ha): 9.0
- Preemergence herbicidal rating AMBEL ([9]; Rate 0.1250 kg/ha): 9.0
- Preemergence herbicidal rating AMBEL ([9]; Rate 0.2500 kg/ha): 9.0
- Preemergence herbicidal rating CASOB ([10]; Rate 0.0620 kg/ha): 5.5
- Preemergence herbicidal rating CASOB ([10]; Rate 0.1250 kg/ha): 7.5
- Preemergence herbicidal rating CASOB ([10]; Rate 0.2500 kg/ha): 9.0
- Preemergence herbicidal rating CHEAL ([11]; Rate 0.0620 kg/ha): 9.0
- Preemergence herbicidal rating CHEAL ([11]; Rate 0.1250 kg/ha): 9.0
- Preemergence herbicidal rating CHEAL ([11]; Rate 0.2500 kg/ha): 9.0
- Preemergence herbicidal rating IPOHE ([12]; Rate 0.0620 kg/ha): 9.0
- Preemergence herbicidal rating IPOHE ([12]; Rate 0.1250 kg/ha): 9.0
- Preemergence herbicidal rating IPOHE ([12]; Rate 0.2500 kg/ha): 9.0
- Preemergence herbicidal rating GLXMAW ([13]; Rate 0.0620 kg/ha): 9.0
- Preemergence herbicidal rating GLXMAW ([13]; Rate 0.1250 kg/ha): 9.0
- Preemergence herbicidal rating GLXMAW ([13]; Rate 0.2500 kg/ha): 9.0
- Preemergence herbicidal rating ORYSAT (ORYSAT (Rice, Tebonnet); Rate 0.0620 kg/ha): 8.0
- Preemergence herbicidal rating ORYSAT (ORYSAT (Rice, Tebonnet); Rate 0.1250 kg/ha): 8.0
- Preemergence herbicidal rating ORYSAT (ORYSAT (Rice, Tebonnet); Rate 0.2500 kg/ha): 9.0
- Preemergence herbicidal rating TRZAWR ([14]; Rate 0.0620 kg/ha): 8.0
- Preemergence herbicidal rating TRZAWR ([14]; Rate 0.1250 kg/ha): 8.0
- Preemergence herbicidal rating TRZAWR ([14]; Rate 0.2500 kg/ha): 9.0
- Preemergence herbicidal rating ZEAMX (ZEAMX (Corn, Field) [15]; Rate 0.0620 kg/ha): 7.5
- Preemergence herbicidal rating ZEAMX (ZEAMX (Corn, Field) [15]; Rate 0.1250 kg/ha): 8.0
- Preemergence herbicidal rating ZEAMX (ZEAMX (Corn, Field) [15]; Rate 0.2500 kg/ha): 9.0
- herbicidal rating, ECHORC ([16]; rate 0.0080 kg/ha): 5.0
- herbicidal rating, ECHORC ([16]; rate 0.0320 kg/ha): 8.0
- herbicidal rating, ECHORC ([16]; rate 0.1250 kg/ha): 9.0
- herbicidal rating, CYPIR (CYPIR (Cyperus iria); rate 0.0080 kg/ha): 0.0
- herbicidal rating, CYPIR (CYPIR (Cyperus iria); rate 0.0320 kg/ha): 7.5
- herbicidal rating, CYPIR (CYPIR (Cyperus iria); rate 0.1250 kg/ha): 9.0
- herbicidal rating, CYPSE ([17]; rate 0.0320 kg/ha): 9.0
- herbicidal rating, CYPSE ([17]; rate 0.1250 kg/ha): 9.0
- herbicidal rating, SAGPY ([18]; rate 0.0080 kg/ha): 0.0
- herbicidal rating, SAGPY ([18]; rate 0.0320 kg/ha): 4.5
- herbicidal rating, SAGPY ([18]; rate 0.1250 kg/ha): 7.5
